Experimental data from US20230339970A1, “CASEIN KINASE 1 DELTA MODULATORS” (priority 2020, published 2023).

Assays:
[1] = target: T1, human CSNK1D (Homo sapiens, UniProt P48730); experiment: Whole Cell nBRET CSNK1D Binding Assay; conditions: living CHO cells stably expressing human CSNK1D tagged with nanoluciferase; NanoBret tracer 130 nM; 2 hours at 37 C
T1 construct: expressed in transfected cells

[2] = target: T2, human recombinant GST cleaved CSNK1D (Homo sapiens, UniProt P48730); experiment: Purified Enzyme Assay (ADP-Glo CSNK1D Kinase Assay); assay type: biochemical; conditions: 2 nM CSNK1D; peptide substrate 150 μM; ATP 20 μM; 45 minutes at room temperature
T2 construct: GST (cleaved yes); purchased University of Dundee clone DU 19064
In short: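 Percent activity derived from ADP-Glo quantification of ADP produced. Reactions: compound dose-response with human recombinant GST-cleaved CSNK1D, ATP and substrate peptide PLSRTL-pS-VASLPGL, incubated 45 min at room temperature.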

T2 sequence (P48730 whole entry): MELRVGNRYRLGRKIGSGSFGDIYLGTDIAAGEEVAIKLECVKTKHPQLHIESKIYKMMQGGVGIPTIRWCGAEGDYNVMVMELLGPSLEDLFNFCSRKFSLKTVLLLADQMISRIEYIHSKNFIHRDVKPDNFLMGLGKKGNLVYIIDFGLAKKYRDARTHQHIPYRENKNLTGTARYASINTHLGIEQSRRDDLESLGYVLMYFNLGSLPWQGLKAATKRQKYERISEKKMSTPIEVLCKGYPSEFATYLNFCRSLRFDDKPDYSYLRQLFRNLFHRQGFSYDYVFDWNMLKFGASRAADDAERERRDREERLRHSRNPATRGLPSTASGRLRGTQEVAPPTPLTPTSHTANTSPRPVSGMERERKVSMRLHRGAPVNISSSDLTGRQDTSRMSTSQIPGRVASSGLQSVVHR
T1 sequence (P48730 whole entry): as above

Structure (SMILES)	IC50 [1]	IC50 [2]
[2H]C([2H])([2H])[C@@]1(C(F)(F)F)Cn2nc(-c3ccc(F)cn3)c(-c3c(F)c(C)nc4[nH]nc(C)c34)c2CO1 (single isomer, unassigned) [Example 431, (*S)-3-(5-Fluoro-3,6-dimethyl-1H-pyrazolo[3,4-b]pyridin-4-yl)-2-(5-fluoropyridin-2-yl)-6-(methyl-d3)-6-(trifluoromethyl)-6,7-dihydro-4H-pyrazolo[5,1-c][1,4]oxazine]	> 10 µM	1.58 µM
Cc1n[nH]c2nccc(-c3c(-c4ccc(F)cc4)nn4c3COC(C(F)(F)F)C4)c12 (single isomer, unassigned) [Example 372, (*S)-2-(4-Fluorophenyl)-3-(3-methyl-1H-pyrazolo[3,4-b]pyridin-4-yl)-6-(trifluoromethyl)-6,7-dihydro-4H-pyrazolo[5,1-c][1,4]oxazine]	0.724 µM	0.042 µM
[2H]C([2H])([2H])C1(C([2H])([2H])[2H])Cc2c(-c3ccnc4[nH]ncc34)c(-c3ccc(F)cc3)nn2C1 [Example 241, 4-[2-(4-Fluorophenyl)-5,5-bis(methyl-d3)-4,6-dihydropyrrolo[1,2-b]pyrazol-3-yl]-1H-pyrazolo[3,4-b]pyridine]	0.007 µM	0.002 µM
C[C@]1(C(F)(F)F)Cn2nc(-c3ccc(F)cn3)c(-c3ccnc4[nH]ncc34)c2CO1 (single isomer, unassigned) [Example 178, (*R)-2-(5-Fluoropyridin-2-yl)-6-methyl-3-(1H-pyrazolo[3,4-b]pyridin-4-yl)-6-(trifluoromethyl)-6,7-dihydro-4H-pyrazolo[5,1-c][1,4]oxazine]	1 µM	0.077 µM
Cc1cc(-c2c(-c3ccc(F)c(C)n3)nn3c2COC(C)(C)C3)c2c(C)n[nH]c2n1 [Example 393, 3-(3,6-Dimethyl-1H-pyrazolo[3,4-b]pyridin-4-yl)-2-(5-fluoro-6-methylpyridin-2-yl)-6,6-dimethyl-6,7-dihydro-4H-pyrazolo[5,1-c][1,4]oxazine]	2.74 µM	0.049 µM
Cc1nc(-c2c(-c3ccc(F)cc3)nn3c2CCC(F)(F)C3)c2cn[nH]c2n1 [Example 279, 4-[6,6-Difluoro-2-(4-fluorophenyl)-5,7-dihydro-4H-pyrazolo[1,5-a]pyridin-3-yl]-6-methyl-1H-pyrazolo[3,4-d]pyrimidine]	0.074 µM	0.005 µM
Cc1cc(-c2c(-c3ccc(F)cc3)nn3c2COCC3)c2cn[nH]c2n1 [Example 71, 2-(4-Fluorophenyl)-3-(6-methyl-1H-pyrazolo[3,4-b]pyridin-4-yl)-6,7-dihydro-4H-pyrazolo[5,1-c][1,4]oxazine]	0.021 µM	0.002 µM
Cc1nc2[nH]nc(C)c2c(-c2c(-c3ccc(F)cn3)nn3c2CC[C@]2(C3)CC2(F)F)c1F (single isomer, unassigned) [Example 334, (*R)-2,2-Difluoro-3′-(5-fluoro-3,6-dimethyl-1H-pyrazolo[3,4-b]pyridin-4-yl)-2′-(5-fluoropyridin-2-yl)-4′,5′-dihydro-7′H-spiro[cyclopropane-1,6′-pyrazolo[1,5-a]pyridine]]	1.55 µM	0.07 µM
Fc1ccc(-c2nn3c(c2-c2ccnc4[nH]ccc24)CCCC3)cc1 [Example 33, 4-[2-(4-Fluorophenyl)-4,5,6,7-tetrahydropyrazolo[1,5-a]pyridin-3-yl]-1H-pyrrolo[2,3-b]pyridine]	0.02 µM	0.004 µM
Cc1nc(-c2c(-c3ccc(F)cc3)nn3c2OCC(F)(F)C3)c2cn[nH]c2n1 [Example 469, 6,6-Difluoro-2-(4-fluorophenyl)-3-(6-methyl-1H-pyrazolo[3,4-d]pyrimidin-4-yl)-5,7-dihydropyrazolo[5,1-b][1,3]oxazine]	0.385 µM	0.028 µM
C[C@@]1(CF)CCc2c(-c3ccncc3)c(-c3ccc(F)cn3)nn2C1 (single isomer, unassigned) [Example 285, (*R)-6-(Fluoromethyl)-2-(5-fluoro-2-pyridyl)-6-methyl-3-(4-pyridyl)-5,7-dihydro-4H-pyrazolo[1,5-a]pyridine]	0.1 µM	0.011 µM
CCC(=O)Nc1cc(-c2c(-c3ccc(F)cn3)nn3c2COC(C)(C)C3)c(C)cn1 [Example 379, N-(4-(2-(5-Fluoropyridin-2-yl)-6,6-dimethyl-6,7-dihydro-4H-pyrazolo[5,1-c][1,4]oxazin-3-yl)-5-methylpyridin-2-yl)propionamide]	0.738 µM	0.041 µM
Fc1ccc(-c2nn3c(c2-c2ccnc4[nH]ncc24)OCCCC3)nc1 [Example 218, 2-(5-Fluoro-2-pyridyl)-3-(1H-pyrazolo[3,4-b]pyridin-4-yl)-5,6,7,8-tetrahydropyrazolo[5,1-b][1,3]oxazepane]	0.239 µM	0.012 µM
Fc1ccc(-c2nn3c(c2-c2ccnc4[nH]ncc24)C[C@H]2C[C@H]23)cc1 [Example 267, (4aR,5aR)-2-(4-Fluorophenyl)-3-(1H-pyrazolo[3,4-b]pyridin-4-yl)-4,4a,5,5a-tetrahydrocyclopropa[4,5]pyrrolo[1,2-b]pyrazole]	0.131 µM	0.006 µM
Cc1cc(-c2c(-c3ccc(F)cc3)nn3c2[C@H]2CC[C@@H]3C2)c2cn[nH]c2n1 (single isomer, unassigned) [Example 365, (4*S,7*R)-2-(4-Fluorophenyl)-3-(6-methyl-1H-pyrazolo[3,4-b]pyridin-4-yl)-4,5,6,7-tetrahydro-4,7-methanopyrazolo[1,5-a]pyridine]	0.008 µM	0.001 µM
Fc1ccc(-c2nn3c(c2-c2ccnc4cn[nH]c24)OCC(F)(F)C3)cc1 [Example 468, 6,6-Difluoro-2-(4-fluorophenyl)-3-(1H-pyrazolo[4,3-b]pyridin-7-yl)-5,7-dihydropyrazolo[5,1-b][1,3]oxazine]	0.187 µM	0.025 µM
COCC[C@@]1(C)CCc2c(-c3ccnc4[nH]ncc34)c(-c3ccc(F)cn3)nn2C1 (single isomer, unassigned) [Example 319, (*R)-4-[2-(5-Fluoro-2-pyridyl)-6-(2-methoxyethyl)-6-methyl-5,7-dihydro-4H-pyrazolo[1,5-a]pyridin-3-yl]-1H-pyrazolo[3,4-b]pyridine]	0.081 µM	0.005 µM

Second part, the compound after the results:

IC50 [1]	IC50 [2]	Structure (SMILES)
0.292 µM	0.022 µM	[2H]C([2H])([2H])C1(C([2H])([2H])[2H])Cn2nc(-c3ccc(F)cn3)c(-c3ccn4nccc4c3)c2CO1 [Example 396, 2-(5-Fluoropyridin-2-yl)-6,6-bis(methyl-d3)-3-(pyrazolo[1,5-a]pyridin-5-yl)-6,7-dihydro-4H-pyrazolo[5,1-c][1,4]oxazine]
> 10 µM	0.235 µM	Cc1n[nH]c2nccc(-c3c(-c4ccc(F)cn4)nn4c3COC(C)(C(F)(F)F)C4)c12 (single isomer, unassigned) [Example 419, (*S)-2-(5-Fluoropyridin-2-yl)-6-methyl-3-(3-methyl-1H-pyrazolo[3,4-b]pyridin-4-yl)-6-(trifluoromethyl)-6,7-dihydro-4H-pyrazolo[5,1-c][1,4]oxazine]
0.005 µM	< 0.0005 µM	Cc1cc(-c2c(-c3ccc(F)cc3)nn3c2OC[C@@H](C)C3)c2cn[nH]c2n1 (single isomer, unassigned) [Example 193, (*S)-2-(4-Fluorophenyl)-6-methyl-3-(6-methyl-1H-pyrazolo[3,4-b]pyridin-4-yl)-6,7-dihydro-5H-pyrazolo[5,1-b][1,3]oxazine]
0.021 µM	0.005 µM	Fc1ccc(-c2nn3c(c2-c2ccnc4[nH]ncc24)[C@H]2CC[C@@H]3C2)cc1 (single isomer, unassigned) [Example 61]
0.038 µM	0.002 µM	Fc1ccc(-c2nn3c(c2-c2ccnc4[nH]ncc24)OCCCC3)cc1 [Example 216, 2-(4-Fluorophenyl)-3-(1H-pyrazolo[3,4-b]pyridin-4-yl)-5,6,7,8-tetrahydropyrazolo[5,1-b][1,3]oxazepane]
0.836 µM	0.019 µM	COc1ccc2nccc(-c3c(-c4ccc(F)cn4)nn4c3COC(C)(C)C4)c2n1 [Example 168, 2-(5-Fluoropyridin-2-yl)-3-(6-methoxy-1,5-naphthyridin-4-yl)-6,6-dimethyl-6,7-dihydro-4H-pyrazolo[5,1-c][1,4]oxazine]
> 10 µM	0.763 µM	COC1(C)COCc2c(-c3ccnc4[nH]ncc34)c(-c3ccc(F)cn3)nn2C1 (single isomer, unassigned) [Example 486, (*R)-2-(5-Fluoropyridin-2-yl)-7-methoxy-7-methyl-3-(1H-pyrazolo[3,4-b]pyridin-4-yl)-7,8-dihydro-4H,6H-pyrazolo[5,1-c][1,4]oxazepine]
0.004 µM	0.002 µM	[2H]C([2H])([2H])C1(C([2H])([2H])[2H])Cc2c(-c3cc(C)nc4[nH]ncc34)c(-c3ccc(F)cc3)nn2C1 [Example 242, 4-[2-(4-Fluorophenyl)-5,5-bis(methyl-d3)-4,6-dihydropyrrolo[1,2-b]pyrazol-3-yl]-6-methyl-1H-pyrazolo[3,4-b]pyridine]
0.016 µM	0.003 µM	CCC(=O)Nc1cc(-c2c(-c3ccc(F)cn3)nn3c2COC(C)(C)C3)ccn1 [Example 131, N-(4-(2-(5-Fluoropyridin-2-yl)-6,6-dimethyl-6,7-dihydro-4H-pyrazolo[5,1-c][1,4]oxazin-3-yl)pyridin-2-yl)propionamide]
0.081 µM	0.004 µM	CC1(CF)CCc2c(-c3ccnc(N)c3)c(-c3ccc(F)cn3)nn2C1 (single isomer, unassigned) [Example 286, (*S)-4-[6-(Fluoromethyl)-2-(5-fluoro-2-pyridyl)-6-methyl-5,7-dihydro-4H-pyrazolo[1,5-a]pyridin-3-yl]pyridin-2-amine]
